# Laboratory results reported in patent US20250376483A1, “PRODRUGS OF PAN-KRAS INHIBITORS” (Mirati Therapeutics, Inc., priority 2022, published 2025).
# What was measured:
# [1] = Plasma Stability Assay (human plasma); format: in vitro ADME; settings: both sexes; pooled human plasma, heparin, final conc. 2 μM, 37° C., 0-120 min; read-out: Human Plasma Stability t1/2
# In short: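 Compound at 2 μM final in pooled heparinised plasma (3 male, 3 female), incubated at 37° C with sampling at 0, 10, 30, 60 and 120 min. Acetonitrile stop, LC-MS/MS; % remaining from analyte/internal-standard peak area ratio relative to T0.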
# [2] = Whole Blood Stability Assay (mouse whole blood); format: in vitro ADME; settings: CD-1 mouse blood, EDTA-K2, final conc. 2 μM, 37° C., 0-120 min; for half-life at 2 μM: male, fresh whole blood, read-out: Mouse Whole Blood Stability t1/2
# In short: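 Compound at 2 μM final was incubated at 37 °C in fresh EDTA-K2 blood from male CD-1 mice. Samples at 0, 10, 30, 60 and 120 min were protein-precipitated with acetonitrile and analysed by LC-MS/MS. % remaining was derived from analyte/internal-standard peak area ratios.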
SMILES,half-life at 2 μM [1] [min],half-life at 2 μM [2] [min],Mouse Whole Blood Stability t1/2 [2] [min]
"CCc1c(F)ccc2cc(OC(=O)N3CCCC3)cc(N3CCc4c(nc(OC[C@@]56CCCN5C[C@H](F)C6)nc4N4CCC[C@]5(C4)NC(=O)NC5=O)C3)c12 [Example 43, 4-(4-((R)-2,4-dioxo-1,3,7-triazaspiro[4.5]decan-7-yl)-2-(((2R,7aS)-2-fluorotetrahydro-1H-pyrrolizin-7a(5H)-yl)methoxy)-5,8-dihydropyrido[3,4-d]pyrimidin-7(6H)-yl)-5-ethyl-6-fluoronaphthalen-2-yl pyrrolidine-1-carboxylate]",> 289,> 289,–
"CCCCCC(=O)Oc1cc(N2CCc3c(nc(OC[C@@]45CCCN4C[C@H](F)C5)nc3N3CCC[C@]4(C3)NC(=O)NC4=O)C2)c2c(CC)c(F)ccc2c1 [Example 44, 4-(4-((R)-2,4-dioxo-1,3,7-triazaspiro[4.5]decan-7-yl)-2-(((2R,7aS)-2-fluorotetrahydro-1H-pyrrolizin-7a(5H)-yl)methoxy)-5,8-dihydropyrido[3,4-d]pyrimidin-7(6H)-yl)-5-ethyl-6-fluoronaphthalen-2-yl hexanoate]",142,–,1
"CCc1c(F)ccc2cc(OC(=O)N(CC)CC)cc(N3CCc4c(nc(OC[C@@]56CCCN5C[C@H](F)C6)nc4N4CCC[C@]5(C4)NC(=O)NC5=O)C3)c12 [Example 45, 4-(4-((R)-2,4-dioxo-1,3,7-triazaspiro[4.5]decan-7-yl)-2-(((2R,7aS)-2-fluorotetrahydro-1H-pyrrolizin-7a(5H)-yl)methoxy)-5,8-dihydropyrido[3,4-d]pyrimidin-7(6H)-yl)-5-ethyl-6-fluoronaphthalen-2-yl diethylcarbamate]",> 289,> 289,–
"CCc1c(F)ccc2cc(OC(=O)OC(C)(C)C)cc(N3CCc4c(nc(OC[C@@]56CCCN5C[C@H](F)C6)nc4N4CCC[C@]5(C4)NC(=O)NC5=O)C3)c12 [Example 46, tert-butyl (4-(4-((R)-2,4-dioxo-1,3,7-triazaspiro[4.5]decan-7-yl)-2-(((2R,7aS)-2-fluorotetrahydro-1H-pyrrolizin-7a(5H)-yl)methoxy)-5,8-dihydropyrido[3,4-d]pyrimidin-7(6H)-yl)-5-ethyl-6-fluoronaphthalen-2-yl) carbonate]",116,13,–
"CCc1c(F)ccc2cc(OC(=O)C3CCCCC3)cc(N3CCc4c(nc(OC[C@@]56CCCN5C[C@H](F)C6)nc4N4CCC[C@]5(C4)NC(=O)NC5=O)C3)c12 [Example 47, 4-(4-((R)-2,4-dioxo-1,3,7-triazaspiro[4.5]decan-7-yl)-2-(((2R,7aS)-2-fluorotetrahydro-1H-pyrrolizin-7a(5H)-yl)methoxy)-5,8-dihydropyrido[3,4-d]pyrimidin-7(6H)-yl)-5-ethyl-6-fluoronaphthalen-2-yl cyclohexanecarboxylate]",223,4,–
"CCc1c(F)ccc2cc(OC(=O)N3CCCCC3)cc(N3CCc4c(nc(OC[C@@]56CCCN5C[C@H](F)C6)nc4N4CCC[C@]5(C4)NC(=O)NC5=O)C3)c12 [Example 48, 4-(4-((R)-2,4-dioxo-1,3,7-triazaspiro[4.5]decan-7-yl)-2-(((2R,7aS)-2-fluorotetrahydro-1H-pyrrolizin-7a(5H)-yl)methoxy)-5,8-dihydropyrido[3,4-d]pyrimidin-7(6H)-yl)-5-ethyl-6-fluoronaphthalen-2-yl piperidine-1-carboxylate]",> 289,106,–
"CCCCCCCC(=O)Oc1cc(N2CCc3c(nc(OC[C@@]45CCCN4C[C@H](F)C5)nc3N3CCC[C@]4(C3)NC(=O)NC4=O)C2)c2c(CC)c(F)ccc2c1 [Example 50, 4-(4-((R)-2,4-dioxo-1,3,7-triazaspiro[4.5]decan-7-yl)-2-(((2R,7aS)-2-fluorotetrahydro-1H-pyrrolizin-7a(5H)-yl)methoxy)-5,8-dihydropyrido[3,4-d]pyrimidin-7(6H)-yl)-5-ethyl-6-fluoronaphthalen-2-yl octanoate]",235,13,–
"CCCCCCCCCC(=O)Oc1cc(N2CCc3c(nc(OC[C@@]45CCCN4C[C@H](F)C5)nc3N3CCC[C@]4(C3)NC(=O)NC4=O)C2)c2c(CC)c(F)ccc2c1 [Example 51, 4-(4-((R)-2,4-dioxo-1,3,7-triazaspiro[4.5]decan-7-yl)-2-(((2R,7aS)-2-fluorotetrahydro-1H-pyrrolizin-7a(5H)-yl)methoxy)-5,8-dihydropyrido[3,4-d]pyrimidin-7(6H)-yl)-5-ethyl-6-fluoronaphthalen-2-yl decanoate]",235,4,–
"CCc1c(F)ccc2cc(OCOC(=O)N(C)C)cc(N3CCc4c(nc(OC[C@@]56CCCN5C[C@H](F)C6)nc4N4CCC[C@]5(C4)NC(=O)NC5=O)C3)c12 [Example 52, ((4-(4-((R)-2,4-dioxo-1,3,7-triazaspiro[4.5]decan-7-yl)-2-(((2R,7aS)-2-fluorotetrahydro-1H-pyrrolizin-7a(5H)-yl)methoxy)-5,8-dihydropyrido[3,4-d]pyrimidin-7(6H)-yl)-5-ethyl-6-fluoronaphthalen-2-yl)oxy)methyl dimethylcarbamate]",> 289,> 289,–
"CCc1c(F)ccc2cc(OC(=O)N3CCCCCC3)cc(N3CCc4c(nc(OC[C@@]56CCCN5C[C@H](F)C6)nc4N4CCC[C@]5(C4)NC(=O)NC5=O)C3)c12 [Example 53, 4-(4-((R)-2,4-dioxo-1,3,7-triazaspiro[4.5]decan-7-yl)-2-(((2R,7aS)-2-fluorotetrahydro-1H-pyrrolizin-7a(5H)-yl)methoxy)-5,8-dihydropyrido[3,4-d]pyrimidin-7(6H)-yl)-5-ethyl-6-fluoronaphthalen-2-yl azepane-1-carboxylate]",> 289,> 289,–
"CCc1c(F)ccc2cc(OC(=O)N3CCCCCCC3)cc(N3CCc4c(nc(OC[C@@]56CCCN5C[C@H](F)C6)nc4N4CCC[C@]5(C4)NC(=O)NC5=O)C3)c12 [Example 54, 4-(4-((R)-2,4-dioxo-1,3,7-triazaspiro[4.5]decan-7-yl)-2-(((2R,7aS)-2-fluorotetrahydro-1H-pyrrolizin-7a(5H)-yl)methoxy)-5,8-dihydropyrido[3,4-d]pyrimidin-7(6H)-yl)-5-ethyl-6-fluoronaphthalen-2-yl azocane-1-carboxylate]",> 289,> 289,–
"CCc1c(F)ccc2cc(OC(=O)N3CCCC[C@@H]3C)cc(N3CCc4c(nc(OC[C@@]56CCCN5C[C@H](F)C6)nc4N4CCC[C@]5(C4)NC(=O)NC5=O)C3)c12 [Example 55, 4-(4-((R)-2,4-dioxo-1,3,7-triazaspiro[4.5]decan-7-yl)-2-(((2R,7aS)-2-fluorotetrahydro-1H-pyrrolizin-7a(5H)-yl)methoxy)-5,8-dihydropyrido[3,4-d]pyrimidin-7(6H)-yl)-5-ethyl-6-fluoronaphthalen-2-yl(S)-2-methylpiperidine-1-carboxylate]",> 289,> 289,–
"CCc1c(F)ccc2cc(OC(=O)N3CCC(C)CC3)cc(N3CCc4c(nc(OC[C@@]56CCCN5C[C@H](F)C6)nc4N4CCC[C@]5(C4)NC(=O)NC5=O)C3)c12 [Example 56, 4-(4-((R)-2,4-dioxo-1,3,7-triazaspiro[4.5]decan-7-yl)-2-(((2R,7aS)-2-fluorotetrahydro-1H-pyrrolizin-7a(5H)-yl)methoxy)-5,8-dihydropyrido[3,4-d]pyrimidin-7(6H)-yl)-5-ethyl-6-fluoronaphthalen-2-yl 4-methylpiperidine-1-carboxylate]",> 289,> 289,–
